Test results reported in ChEMBL document CHEMBL2074243, “Mitochondria-targeting drug oligomycin blocked P-glycoprotein activity and triggered apoptosis in doxorubicin-resistant HepG2 cells” (Chemotherapy, 2004).

Molecular target: ATP-dependent translocase ABCB1 (Homo sapiens, UniProt P08183)
Assay: TP_TRANSPORTER: drug resistance in R-HepG2 cells
Assay type: functional, cell-based

Sequence of ATP-dependent translocase ABCB1 (P08183 whole entry): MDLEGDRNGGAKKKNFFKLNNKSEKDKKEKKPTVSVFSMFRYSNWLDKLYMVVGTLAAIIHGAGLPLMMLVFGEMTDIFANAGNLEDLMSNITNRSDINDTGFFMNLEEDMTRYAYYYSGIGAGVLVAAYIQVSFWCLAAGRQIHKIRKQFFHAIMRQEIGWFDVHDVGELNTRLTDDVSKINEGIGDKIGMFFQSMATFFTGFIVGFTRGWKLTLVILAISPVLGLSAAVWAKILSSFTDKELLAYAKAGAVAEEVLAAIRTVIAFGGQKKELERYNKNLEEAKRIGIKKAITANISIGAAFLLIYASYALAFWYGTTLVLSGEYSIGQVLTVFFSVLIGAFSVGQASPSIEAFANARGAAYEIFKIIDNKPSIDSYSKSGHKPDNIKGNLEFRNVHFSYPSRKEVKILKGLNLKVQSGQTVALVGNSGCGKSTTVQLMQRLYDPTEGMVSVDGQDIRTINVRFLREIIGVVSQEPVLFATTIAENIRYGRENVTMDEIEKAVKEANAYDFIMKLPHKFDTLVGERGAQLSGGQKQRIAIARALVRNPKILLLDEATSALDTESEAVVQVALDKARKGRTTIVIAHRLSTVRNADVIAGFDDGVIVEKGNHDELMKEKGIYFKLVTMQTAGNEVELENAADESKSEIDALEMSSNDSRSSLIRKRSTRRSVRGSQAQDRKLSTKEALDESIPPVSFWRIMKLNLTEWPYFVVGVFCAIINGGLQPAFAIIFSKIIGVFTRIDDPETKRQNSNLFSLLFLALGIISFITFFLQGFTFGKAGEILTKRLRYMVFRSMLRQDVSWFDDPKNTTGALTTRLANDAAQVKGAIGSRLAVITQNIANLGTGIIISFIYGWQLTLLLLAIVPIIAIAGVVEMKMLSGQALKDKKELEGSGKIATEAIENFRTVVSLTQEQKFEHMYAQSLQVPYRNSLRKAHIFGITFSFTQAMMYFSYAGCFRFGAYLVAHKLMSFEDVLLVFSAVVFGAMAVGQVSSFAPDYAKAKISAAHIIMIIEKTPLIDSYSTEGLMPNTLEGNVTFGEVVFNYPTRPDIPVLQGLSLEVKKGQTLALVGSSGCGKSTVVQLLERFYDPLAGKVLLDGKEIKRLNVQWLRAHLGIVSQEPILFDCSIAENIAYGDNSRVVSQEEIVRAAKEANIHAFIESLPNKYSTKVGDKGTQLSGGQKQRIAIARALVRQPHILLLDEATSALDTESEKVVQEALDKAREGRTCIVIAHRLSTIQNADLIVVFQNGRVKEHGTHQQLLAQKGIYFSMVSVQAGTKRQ

Row | Compound | Activity
1 | COc1cccc2c1C(=O)c1c(O)c3c(c(O)c1C2=O)C[C@@](O)(C(=O)CO)C[C@@H]3O[C@H]1C[C@H](N)[C@H](O)[C@H](C)O1 [DOXORUBICIN] | substrate [+]
2 | CISPLATIN | substrate [+]
3 | CC(=O)O[C@H]1C(=O)[C@@]2(C)[C@H]([C@H](OC(=O)c3ccccc3)[C@]3(O)C[C@H](OC(=O)[C@H](O)[C@@H](NC(=O)c4ccccc4)c4ccccc4)C(C)=C1C3(C)C)[C@]1(OC(C)=O)CO[C@@H]1C[C@@H]2O [PACLITAXEL] | substrate [+]
